In paper PMC12532338, “Characterization of a sesquiterpene synthase and a short-chain dehydrogenase in zerumbone biosynthesis and the applications in engineered Saccharomyces cerevisiae” (Frontiers in Plant Science, 2025):

Target: T1, CwTPS8 (Curcuma wenyujin, UniProt A0A8E5B8H5)
T1 construct: complete ORF in pMAL-His (pMAL-c2x with His(8)-tag), E. coli BL21(DE3), Ni-NTA purified; tag removal not described
Assay: GC-MS of hexane-extracted products
Type: biochemical
Conditions: formation of main product β-caryophyllene; 50 mM HEPES pH 7.5, 10 mM MgCl2, 5 mM DTT, 5% glycerol; 30°C, 10 min; 10-150 µM FPP; read-out: K m of β-caryophyllene

T1 sequence (A0A8E5B8H5 entry or part of it): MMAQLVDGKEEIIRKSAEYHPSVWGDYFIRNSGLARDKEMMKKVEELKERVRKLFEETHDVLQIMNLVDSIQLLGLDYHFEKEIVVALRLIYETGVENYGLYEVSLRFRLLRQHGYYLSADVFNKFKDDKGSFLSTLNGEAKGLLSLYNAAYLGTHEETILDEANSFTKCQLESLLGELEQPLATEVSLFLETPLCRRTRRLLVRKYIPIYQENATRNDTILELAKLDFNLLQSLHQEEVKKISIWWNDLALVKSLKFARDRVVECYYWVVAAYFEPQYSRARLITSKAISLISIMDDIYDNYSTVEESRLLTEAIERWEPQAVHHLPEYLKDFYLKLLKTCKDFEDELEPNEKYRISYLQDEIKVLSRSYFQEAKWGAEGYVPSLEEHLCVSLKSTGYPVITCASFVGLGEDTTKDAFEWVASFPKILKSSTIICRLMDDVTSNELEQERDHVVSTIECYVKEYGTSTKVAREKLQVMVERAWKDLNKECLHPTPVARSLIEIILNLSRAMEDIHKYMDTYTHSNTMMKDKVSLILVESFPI

CC(C)=CCC/C(C)=C/CC/C(C)=C/CO[P@@](=O)(O)OP(=O)(O)O [FPP]
Km: 28 µM
